The NIST ThermoML archive (doi:10.1021/je400803f)

Assay: xn = mol fraction of the nth substance listed
Conditions: 101 kPa, Liquid, Vibrating tube method

CCCC[N+]1(C)CCCC1.FC(F)(F)C(F)(F)[P-](F)(F)(F)(C(F)(F)C(F)(F)F)C(F)(F)C(F)(F)F + CN(C)C=O
mass density [kg/m3]
Conditions	293.15 K	298.15 K	303.15 K	308.15 K	313.15 K	318.15 K	323.15 K
x1 = 0.0165	993.84	988.9	983.96	978.95	973.88	968.76	963.52
x1 = 0.0379	1045.32	1040.31	1035.26	1030.17	1024.98	1019.76	1014.46
x1 = 0.0636	1098.24	1093.11	1087.96	1082.78	1077.52	1072.2	1066.82
x1 = 0.0999	1160.65	1155.44	1150.21	1144.9	1139.55	1134.13	1128.66
x1 = 0.1381	1214.48	1209.17	1203.86	1198.5	1193.09	1187.58	1182.02
x1 = 0.2002	1284.15	1278.78	1273.37	1267.93	1262.4	1256.85	1251.25
x1 = 0.3038	1367.83	1362.38	1356.95	1351.43	1345.95	1340.13	1334.59
x1 = 0.3944	1420.86	1415.36	1409.86	1404.36	1398.78	1393.18	1387.5
x1 = 0.4946	1465.66	1460.2	1454.71	1449.18	1443.63	1438.04	1432.36
x1 = 0.5997	1502.25	1496.77	1491.29	1485.78	1480.25	1474.66	1469.03
x1 = 0.6972	1529.32	1523.85	1518.39	1512.87	1507.34	1501.77	1496.17
x1 = 0.7887	1550.58	1545.07	1539.56	1534.11	1528.58	1523.04	1517.43
x1 = 0.8853	1569.6	1564.14	1558.67	1553.16	1547.65	1542.09	1536.51

CCCC[N+]1(C)CCCC1.FC(F)(F)C(F)(F)[P-](F)(F)(F)(C(F)(F)C(F)(F)F)C(F)(F)C(F)(F)F + CNC=O
mass density [kg/m3]
Conditions	293.15 K	298.15 K	303.15 K	308.15 K	313.15 K	318.15 K	323.15 K
x1 = 0.017	1058.37	1053.77	1049.14	1044.53	1039.79	1035.11	1030.3
x1 = 0.038	1115.08	1110.31	1105.47	1100.72	1095.79	1091	1085.98
x1 = 0.064	1172.33	1167.39	1162.43	1157.5	1152.45	1147.53	1142.27
x1 = 0.1395	1288.62	1283.34	1278.09	1272.85	1267.61	1262.38	1256.78
x1 = 0.1994	1349.8	1344.44	1339.03	1333.6	1328.11	1322.58	1317.13
x1 = 0.2991	1419.35	1413.93	1408.4	1402.86	1397.22	1391.56	1385.88
x1 = 0.4005	1466.49	1460.95	1455.39	1449.79	1444.2	1438.48	1432.75
x1 = 0.5044	1501.13	1495.58	1490.07	1484.49	1478.87	1473.25	1467.48
x1 = 0.5964	1524.64	1519.12	1513.49	1507.92	1502.28	1496.79	1491.13
x1 = 0.6471	1535.54	1530.04	1524.39	1518.85	1513.18	1507.72	1502.01
x1 = 0.7548	1555.34	1549.77	1544.13	1538.58	1532.92	1527.43	1521.8
x1 = 0.8413	1568.65	1563.05	1557.45	1551.88	1546.25	1540.73	1535.12
x1 = 0.9029	1577.04	1571.47	1565.91	1560.34	1554.73	1549.18	1543.58

CCNC=O [N-ethylformamide] + CCCC[N+]1(C)CCCC1.FC(F)(F)C(F)(F)[P-](F)(F)(F)(C(F)(F)C(F)(F)F)C(F)(F)C(F)(F)F
mass density [kg/m3]
Conditions	293.15 K	298.15 K	303.15 K	308.15 K	313.15 K	318.15 K	323.15 K
x2 = 0.0355	1046.38	1042.01	1037.61	1033.05	1028.58	1024.03	1019.35
x2 = 0.0753	1128.67	1124.07	1119.47	1114.62	1109.94	1105.19	1100.26
x2 = 0.0995	1169.56	1164.94	1160.15	1155.23	1150.34	1145.54	1140.56
x2 = 0.1508	1240.4	1235.52	1230.53	1225.54	1220.42	1215.44	1210.24
x2 = 0.2001	1293.64	1288.61	1283.5	1278.35	1273.19	1267.97	1262.79
x2 = 0.3045	1375.94	1370.73	1365.53	1360.23	1354.95	1349.61	1344.26
x2 = 0.3996	1429.28	1424.04	1418.68	1413.37	1407.95	1402.56	1397.21
x2 = 0.5028	1472.71	1467.38	1462.01	1456.63	1451.21	1445.76	1440.28
x2 = 0.5527	1489.92	1484.53	1479.12	1473.75	1468.31	1462.86	1457.36
x2 = 0.5989	1504.15	1498.78	1493.4	1487.95	1482.48	1477.03	1471.54
x2 = 0.7015	1531.11	1525.64	1520.2	1514.75	1509.27	1503.82	1498.32
x2 = 0.7983	1552.06	1546.66	1541.23	1535.76	1530.25	1524.73	1519.18
x2 = 0.8866	1568.75	1563.32	1557.82	1552.35	1546.84	1541.33	1535.77
x2 = 0.951	1580.11	1574.66	1569.19	1563.71	1558.18	1552.64	1547.05
